# Laboratory results reported in patent US20070191398A1, “Fungicidal mixtures” (priority 2004, published 2007).
# System: Plasmopara viticola
# Test: persistency against peronospora of grapevines caused by Plasmopara viticola, 7-day protective application
# Format: in vivo, Plasmopara viticola on potted vines
# Conditions: individual active compound, 7-day protective application on grapevine leaves
# Description: The active compounds, separately or jointly, were prepared as a stock solution comprising 0.25% by weight of active compound in acetone or DMSO. 1% by weight of the emulsifier Uniperol® EL (wetting agent having emulsifying and dispersant action based on ethoxylated alkylphenols) was added to this solution, and the mixture was diluted with water to the desired concentration.
# Use example—persistency against peronospora of grapevines caused by Plasmopara viticola, 7-day protective application Leaves of potted vines were sprayed to runoff point with an aqueous suspension having the concentration of active compound stated below. 7 days later, the undersides of the leaves were inoculated with an aqueous sporangia suspension of Plasmopara viticola. The grapevines were then initially placed in a water-vapor-saturated chamber at 24° C. for 48 hours and then in a greenhouse at 20-30° C. for 5 days. After this period of time, the plants were again placed in a humid chamber for 16 hours to accelerate sporangiophore eruption. The extent of the development of the disease on the undersides of the leaves was then determined visually.
# The visually determined percentages of infected leaf areas were converted into efficacies in % of the untreated control:
# The efficacy (E) is calculated as follows using Abbot's formula: E=(1−α/β)·100 α corresponds to the fungicidal infection of the treated plants in % and β corresponds to the fungicidal infection of the untreated (control) plants in % An efficacy of 0 means that the infection level of the treated plants corresponds to that of the untreated control plants; an efficacy of 100 means that the treated plants were not infected.
# The expected efficacies of mixtures of active compounds were determined using Colby's formula (Colby, S. R. “Calculating synergistic and antagonistic responses of herbicide combinations”, Weeds, 15, 20-22, 1967) and compared with the observed efficacies.
# Colby's formula: E=x+y−x·y/100
# E expected efficacy, expressed in % of the untreated control, when using the mixture of the active compounds A and B at the concentrations a and b x efficacy, expressed in % of the untreated control, when using the active compound A at the concentration a y efficacy, expressed in % of the untreated control, when using the active compound B at the concentration b
SMILES,Efficacy in % of the untreated control (1 ppm in the spray liquor) [%],Efficacy in % of the untreated control (5 ppm in the spray liquor) [%],Efficacy in % of the untreated control (10 ppm in the spray liquor) [%],Efficacy in % of the untreated control (2.5 ppm in the spray liquor) [%]
"CC1CCN(c2c(-c3c(F)cc(F)cc3F)c(Cl)nc3ncnn23)CC1 [I, 5-chloro-7-(4-methylpiperidin-1-yl)-6-(2,4,6-trifluorophenyl)-[1,2,4]tri-azolo[1,5-a]pyrimidine]",0,0,6,–
"O=C(NCc1ncc(C(F)(F)F)cc1Cl)c1c(Cl)cccc1Cl [II, 2,6-dichloro-N-(3-chloro-5-trifluoromethylpyridin-2-ylmethyl)-benzamide]",–,76,–,65
